Test results reported in patent US20050182002A1, “Agents which interact with a serotonin transporter for the treatment of cancer” (priority 2002, published 2005).
Like-named read-outs stand apart in the source and are kept apart here.

Key:
Type in all cases: cell-based
[1] = system: L3055 cells; test: OxyDNA assay of oxidative damage to DNA; details: 6 hr; 150 μM 5-HT or 30 μM H2O2
Procedure: Oxidative damage to DNA was quantified using the OxyDNA assay (Biotrin, Dublin, Ireland). Following culture of cells under conditions indicated below, they were washed first in 1×PBS then in wash solution followed by addition of 100 μl of blocking solution with a 1 hr incubation at 37° C. On washing twice in working solution, cells were then incubated with 100 μl FITC-conjugate for 1 hr in the dark at RT before being washed twice in washing solution and once in PBS. Finally, cells were resuspended in FACS buffer and analysed on an EPICS XL-MCL flow cytometer.
While the above experiments offer evidence that oxidative stress was not the cause of 5-HT-induced apoptosis in BL cells, further more direct examination of the generation of potential reactive oxygen species (ROS) as a consequence of 5-HT uptake was undertaken. For this the OxyuDNA assay was used, which quantifies 8-oxo-7,8-dihydro-2′-deoxyguanosine (8-oxodGuo) residues that are generated as a result of oxidative damage to DNA (see methods section 1.1.8 above).

[2] = system: L3055 cells; test: Mitochondrial depolarisation with JC-1 dye; details: following exposure to 5-HT; not shown
Procedure: Apoptosis was assessed by staining cells with acridine orange and visualising nuclear morphology exactly as described previously (Gordon J, et al. Cell Death. Diff. (2000); 7:785-794). Viable cells display a homogeneous chromatin-staining pattern, whereas apoptotic cells characteristically show condensed and fragmented chromatin. Mitochondrial depolarisation was assessed using the JC-1 cationic dye. Cells were incubated with 10 μM of JC-1 for 30 min before being visualised on a LSM 510 confocal microscope (Zeiss, Germany). […] Mitochondrial depolarisation is indicated by a decrease in the red/green fluorescence ratio.

[3] = system: L3055 cells; test: Cell cycle analysis (propidium iodide, flow cytometry); details: 24 hr; each at its maximal concentration (5-HT 150 μM, fluoxetine 10 μM, anti-μ chain antibody 10 μg/ml)
Procedure: Cells cultured under conditions indicated below were harvested into 100 μl of 1×PBS followed by 400 μl cell cycle buffer containing Triton X-100 and propidium iodide and left to incubate at 4° C. for 1 hr to allow staining of DNA. The degree of fluorescence emitted by bound PI is directly proportional to the amount of DNA in each cell and was measured by flow cytometry as previously described (MacDonald I, et al. Blood (1996); 87:1147-1154). Results are expressed as percentage of viable cells residing in each phase of the cycle.

[4] = system: L3055 cells; test: Caspase activity (FAM-VAD-FMK, FACS); details: for effect on number of cells showing caspase activity (in words): single dose for 24 hours, fluoxetine 10 μM, paroxetine 10 μM, citalopram 100 μM
Procedure: Caspase activity was detected using the CaspaTag Caspase Activity Kit (Intergen, Oxford, UK). Cells cultured under the conditions indicated below were harvested into 300 μl of culture medium at a cell density of 10^6cells/ml, followed by the addition of […] of a 30×working solution of FAM-VAD-FMK (a carboxy fluorescent tagged caspase inhibitor) (Intergen Co., USA). Cells were then incubated for 1 hr at 37° C. under 5% CO2 while protecting the tubes from light. At the end of the incubation, they were washed twice in 2 ml of 1×washing buffer, followed by addition of 2 μl of PI to distinguish dead cells from live cells, then analysed on an EPICS XL-MCL flow cytometer or by confocal microscopy. For the latter, treated cells were harvested into 300 μl of culture medium containing 10 μl of FAM-VAD-FMK before incubating for 1 hr under the conditions described above. Next, 1.5 μl of Hoechst 33342 stain was added for 5 min, and cells were washed twice in 2 ml of 1×washing buffer following the addition of 1 μl of PI.

[5] = system: Mutu III, an apoptosis resistant (group III) BL cell line; test: DNA synthesis by [3H]-thymidine incorporation in Mutu III; details: 125 μM 5-HT, 24 hr
Procedure: (§1) DNA synthesis was determined by measuring ^3H-thymidine ([^3H]Tdr; Amersham, UK) incorporation into cellular DNA. Cells were cultured in 200 μL of supplemented medium at densities and for times indicated below in flat-bottomed, 96-well tissue culture plates (Becton Dickinson, Oxford, U K) then pulsed for the final 4 h with 50 μl of 10 μCi/ml [^3H]Tdr before harvesting on a Skatron cell harvester (Helis Bio Ltd, Newmarket, UK).
(§2) Three other group I BL cell lines were also investigated, namely: Mutu I, Elijah, and BL2.

[6] = system: group I BL cell lines Mutu I, Elijah, and BL2; test: DNA synthesis by [3H]-thymidine incorporation in other group I BL cell lines; details: 125 μM 5-HT, 24 hr
Procedure: as §1, §2

[7] = system: L3055 cells; test: Viability by FACS forward versus side light scatter
Procedure: (§3) Changes in the viability of cells cultured under conditions indicated below were quantified by assessment of forward and 90° (side) light scatter of cells as previously described (Dive C, et al. Biochimica Biophysica Acta (1992); 1133:275-285) using an EPICS XL-MCL flow cytometer (Beckman Coulter, Miami, Fla., USA). Prior to analysis, cells were harvested into polythene FACS tubes, and fixed at 4° C. in 400 μl of FACS buffer [PBS with 5% NGS and 2% Formaldehyde] (BDH/MERCK). Cells were gated in two populations (viable and dead) according to their forward and side light scatter. Viability was expressed as a percentage of the total number of cells residing in the viable and non-viable gates. Cells were also analysed according to Schuurhuis et al (Schuurhuis G J, et al. Exp. Haematol. (1997); 25:754-759) in order to assess the percentages within treated populations of those that were viable, apoptotic, or necrotic. Syto 16 was added at a concentration of 250 nM in PBS to 500,000 cells and incubated at RT for 30 min, at which time 5 μg/ml propidium iodide (PI) was added. Samples were then analysed immediately by FACS and a 2D plot generated of syto 16 fluorescence versus PI fluorescence: syto 16 is taken up only by viable cells whereas Pi exclusively enters necrotic cells—syto 16^−ve/PI^−ve cells are deemed apoptotic.

[8] = system: L3055 BL cells; test: DNA synthesis by [3H]-thymidine incorporation in L3055 cells; details: for inhibition at 50 µM: L3055, 5-HT 50 μM; for effect on DNA synthesis (in words): single dose, range of concentrations, [3H]-thymidine incorporation at 24 hr; for influence of pre-treatment on 5-HT-dependent inhibition of DNA synthesis (in words): cells pre-treated with agent before 5-HT
Procedure: as §1

[9] = system: T-cell leukaemia line, Jurkat; test: 5-HT sensitivity of Jurkat line; details: not shown
[10] = system: L3055 cells; test: Syto 16 / propidium iodide staining (viable, apoptotic, necrotic); details: increasing concentrations, 24 hr
Procedure: as §3

[11] = system: Bcl-2 transfected BL cell line; test: Viability (FACS light scatter) of Bcl-2 transfected BL cell line
Procedure: Group I Burkitt's lymphoma cell lines L3055 (EBV^neg), BL2 (EBV^neg), Elijah (EBV^pos), and MUTU I (EBV^pos) were maintained in early passage as described previously (Baker M P, Eliopoulos E, Young L S, Armitage R J, Gregory C D, Gordon J. Blood (1998); 92:2830-2843). The late passage group III BL line MUTU III (EBV^pos) was also used with all cells cultured in RPMI 1640 medium supplemented with 10% Serum Supreme (BioWhittaker, Wokingham, UK), 2 mM glutamine, 100 IU/ml penicillin and 100 μg/ml streptomycin. […]
Changes in the viability of cells cultured under conditions indicated below were quantified by assessment of forward and 90° (side) light scatter of cells as previously described (Dive C, et al. Biochimica Biophysica Acta (1992); 1133:275-285) using an EPICS XL-MCL flow cytometer (Beckman Coulter, Miami, Fla., USA). […] Viability was expressed as a percentage of the total number of cells residing in the viable and non-viable gates. Cells were also analysed according to Schuurhuis et al (Schuurhuis G J, et al. Exp. Haematol. (1997); 25:754-759) in order to assess the percentages within treated populations of those that were viable, apoptotic, or necrotic. […]

[12] = system: L3055 cells; test: Intracellular free Ca2+; details: data not shown
Text: The increase in intracellular free Ca^2+ is known to be an important step in the induction of apoptosis.

SMILES: NCCc1c[nH]c2ccc(O)cc12 [Example 5-HT, Serotonin]
- level of oxidatively damaged DNA (8-oxoguanosine residues) (in words) [1]: no increase in the level of oxidatively damaged DNA
- mitochondrial membrane potential (in words) [2]: loss of mitochondrial membrane potential
- cell cycle status (in words) [3]: accumulation of arresting cells in the G0/G1 compartment
- % caspase activation (6 h) ([4]; 5-HT 150 μM, fluoxetine 5 μM, paroxetine 2 μM, citalopram 10 μM, means ± S.E.M. of 3, control 27.3 ± 1.20): 58.3 ± 2.03%
- percentage of cells showing caspase activity ([4]; 6 hr 5-HT treatment, background level 29%): 59%
- effect on DNA synthesis (in words) [5]: only marginally decreased DNA synthesis
- effect on DNA synthesis (in words) [6]: substantial decrease in DNA synthesis
- cells with light scatter characteristics of dead cells (in words) ([7]; 1 to 150 μM, 24 hr): dramatic concentration-dependent increase in the number of L3055 cells acquiring light scatter characteristics of dead cells
- viability at 150 µM ([7]; L3055, 24 h, read-out: % viable cells (24 h)): 21.3 ± 8.65%
- effect on level of DNA synthesis (in words) ([8]; 1 μM 5-HT, very early passage, lower cell numbers, data not shown): significant reduction
- inhibition at 50 µM ([8]; cells plated at 2×10^4 per well): ~35%
- inhibition at 50 µM ([8]; cells plated at 5×10^3 per well): > 90%
- inhibition at 50 µM ([8]; cells plated at 10^4 per well): ~70%
- IC50 ([8]; L3055, read-out: 5-HT required to achieve 50% inhibition of DNA synthesis, plated at 2.5×10^4 per ml (5×10^3 per well)): ~5 µM
- IC50 ([8]; L3055, read-out: 5-HT required to achieve 50% inhibition of DNA synthesis, plating density 10^5 per ml (2×10^4/well)): > 50 µM
- effect on DNA synthesis (in words) [8]: caused a reduction in DNA synthesis in a concentration-dependent manner
- sensitivity to 5-HT actions (in words) [9]: insensitive
- number of viable cells (syto 16+ve/PI−ve) (in words) [10]: decreased in a concentration-dependent manner

SMILES: OO [Example H2O2, H2O2]
- level of oxidatively damaged DNA (8-oxoguanosine residues) (in words) [1]: large increase in the level of 8-oxoguanosine residues generated

SMILES: CCN(CC)CCOC(=O)c1cc(Cl)c(N)cc1OC [SDZ205-557]
- influence of pre-treatment on 5-HT-dependent inhibition of DNA synthesis (in words) [8]: failed to influence the ability of 5-HT to inhibit DNA synthesis

SMILES: C#CCN(C)CCCOc1ccc(Cl)cc1Cl [clorgyline]
- influence of pre-treatment on 5-HT-dependent inhibition of DNA synthesis (in words) [8]: the same outcome was observed

SMILES: C#CCN(C)[C@H](C)Cc1ccccc1 [deprenyl]
- influence of pre-treatment on 5-HT-dependent inhibition of DNA synthesis (in words) [8]: the same outcome was observed

SMILES: CN(C)CCCN1c2ccccc2CCc2ccccc21 [imipramine]
- cell killing in Bcl-2 transfected versus native BL cell line (in words) ([11]; 24 hrs): greatly reduced
- survival (live cells) ([11]; Bcl-2 transfected BL cell line (panel II, FIG. 26)): 91%
- effect on number of cells showing caspase activity (in words) [4]: significant effect on the number of cells exhibiting caspase activity
- survival (live cells) ([7]; native cell line (panel I, FIG. 26)): 30%
- effect on DNA synthesis (in words) [8]: dose dependant effect

SMILES: C#CCN(C)Cc1ccccc1 [pargyline]
- effect of agent by itself on DNA synthesis (in words) ([8]; 100 μM pargyline, no 5-HT): no deleterious effect by itself
- influence of pre-treatment on 5-HT-dependent inhibition of DNA synthesis (in words) [8]: failed to influence 5-HT-induced cessation of DNA synthesis

SMILES: Fc1ccc([C@@H]2CCNC[C@H]2COc2ccc3c(c2)OCO3)cc1 [paroxetine]
- effect on number of cells showing caspase activity (in words) [4]: significant effect on the numbers of cells showing caspase activity
- basal Ca2+ (in words) [12]: increase in basal Ca^2+
- influence of pre-treatment on 5-HT-dependent inhibition of DNA synthesis (in words) [8]: substantially reversed
- effect on DNA synthesis (in words) [8]: dose dependent inhibitory effect
